Molecules are shown by their SMILES. Like-named read-outs stand apart in the source and are kept apart here. Residues, ends and D or L forms follow the SMILES beside them.

As usually defined, the tissue uptake is the percentage of the injected dose found per gram of tissue.

The test system of data set [1] is GRPR-positive PC-3 tumors. The conditions noted are these: mouse, in vivo.
Procedure: (§1) 2-3 weeks after inoculation, when tumor size averaged 200 mm^3, mice were injected intravenously with 5-10 MBq of radiolabeled peptide (200 pmol, 200 μL). To determine the receptor-mediated localization of the radiolabeled peptides, additional animals were co-injected with an excess (20 nmol) of unlabeled peptide. Mice were euthanized 1 h or 2 h post injection (p.i.) by CO2/O2 asphyxiation. Mice were first scanned in prone position on a small animal PET/CT scanner (Inveon; Siemens Preclinical Solutions). PET emission scans were acquired for 30-60 min, followed by a CT scan (spatial resolution 113.15 μm; 80 kV; and 500 μA). Scans were reconstructed using Inveon Acquisition Workplace software (version 1.5; Siemens Preclinical Solutions), using a 3-dimensional ordered-subset expectation maximization/maximization a posteriori algorithm with the following parameters: matrix, 256×256×161; pixel size, 0.40×0.40×0.796 mm; and β-value, 1.5, with uniform variance and FastMAP. After scanning, blood, tumor, and relevant organs and tissues were collected, weighed and counted in a γ-counter. The percentage injected dose per gram (% ID/g) was determined for each tissue sample.
(§2) Statistical analysis was performed using GraphPad Prism version 5.01 (San Diego, Calif., USA). […] Statistical analysis on biodistribution data was performed using a 1-way ANOVA with a Bonferroni post-hoc test, and the level of significance was set at P less than 0.05.
Data set [2] has as its system GRPR-positive PC-3 tumors. Nature of the data set: Small-animal PET/CT and biodistribution in mice bearing s.c. PC-3 xenografts. The conditions noted are these: for tumor uptake after co-injection of excess unlabeled peptide (GRPR-specificity): co-injection of 100-fold excess of unlabeled JMV4168 or JMV5132.
Procedure: as §1, §2
The target of data set [3] is T1, PC-3 cells (gastrin-releasing peptide receptor) (Homo sapiens, UniProt P30550).
T1 construct: 3×10^6 PC-3 cells were exposed to a constant amount (˜50,000 cpms) of ^125I-Bombesin; endogenous in cells; host or cells: PC-3 cells
Nature of the data set: Blocking of 125I-Bombesin binding to PC-3 cells. The conditions noted are these: 56 to 0.44 nM. As for the experimental part:
A NOTA-conjugated bombesin derivative (IMP468) was prepared as described above. […] Our initial experiment was to determine if IMP468 could specifically block bombesin from binding to PC-3 cells. We used IMP333 as a non-specific control. […] A range of 56 to 0.44 nM was used as our inhibitory concentrations.
This experiment was repeated using a commercially available BBN peptide.

Data set [4] is described as follows: Octanol/water partition coefficient. The conditions noted are these: pH 7.4, octanol / PBS pH 7.4, n=3; read-out: log P octanol/water. Format: physicochemical. The method, then:
Octanol/Water Partition Coefficient The radiolabeled peptide (1 MBq) was diluted in 500 μL phosphate-buffered saline (pH 7.4) and mixed vigorously with 500 μL octanol for 2 min using a vortex mixer. The two layers were separated by centrifugation (1000 rpm, 5 min).

The nature of data set [5]: Small-animal PET/CT and biodistribution in mice bearing s.c. PC-3 xenografts. Particulars: male, nude BALB/c, mouse, iv, 200 pmol, total radioactivity, 200 pmol.
Procedure: as §1, §2
The nature of the next data set: in vivo. Particulars: male, nude BALB/c, mouse, iv, 200 pmol, total radioactivity, uptake in PC-3 tumors.
Where [6] appears, read: male, nude BALB/c, iv, 200 pmol, 2 h.

T1 sequence (P30550 whole entry): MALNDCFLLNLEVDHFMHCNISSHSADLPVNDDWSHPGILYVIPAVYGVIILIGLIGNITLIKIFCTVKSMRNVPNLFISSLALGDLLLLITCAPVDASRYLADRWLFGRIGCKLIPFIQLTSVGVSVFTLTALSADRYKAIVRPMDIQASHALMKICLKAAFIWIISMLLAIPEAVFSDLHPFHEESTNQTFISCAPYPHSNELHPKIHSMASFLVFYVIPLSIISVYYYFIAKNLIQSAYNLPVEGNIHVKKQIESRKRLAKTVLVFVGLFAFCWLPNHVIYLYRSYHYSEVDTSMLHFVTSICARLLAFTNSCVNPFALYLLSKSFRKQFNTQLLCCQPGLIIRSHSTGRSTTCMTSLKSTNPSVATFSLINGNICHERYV
Procedure for in vivo: as §1, §2

For the compound `CC(C)C[C@H](NC(=O)C[C@H](O)[C@H](CC(C)C)NC(=O)[C@H](Cc1c[nH]cn1)NC(=O)CNC(=O)[C@@H](NC(=O)[C@H](C)NC(=O)[C@H](Cc1c[nH]c2ccccc12)NC(=O)[C@H](CCC(N)=O)NC(=O)[C@@H](Cc1ccccc1)NC(=O)CCNC(=O)CCNC(=O)Cc1ccc(CN2CCN(CC(=O)O)CCN(CC(=O)O)CC2)cc1)C(C)C)C(N)=O` [Al^18F-JMV5132], in data set [1] (setting [6]), the remaining in blood was determined as 0.05±0.01 % ID/g and the “uptake in PC-3 tumors” value was 5.30±0.98 % ID/g. In data set [2], the “tumor uptake after co-injection of excess unlabeled peptide (GRPR-specificity)” value is “significantly reduced”.
`CSCC[C@H](NC(=O)[C@H](CC(C)C)NC(=O)[C@H](Cc1c[nH]cn1)NC(=O)CNC(=O)[C@@H](NC(=O)[C@H](C)NC(=O)[C@H](Cc1c[nH]c2ccccc12)NC(=O)[C@@H](NC(=O)[C@H](Cc1c[nH]c2ccccc12)NC(=O)[C@H](CCC(N)=O)NC(=O)CCCCCCCNC(=O)CN1CCN(CC(=O)O)CCN(CC(=O)O)CC1)C(C)C)C(C)C)C(N)=O` [IMP468] (HELM PEPTIDE1{[O=C(O)CN1CCN(CC(=O)O)CCN(CC(=O)[*:2])CC1].[O=C(CCCCCCCN[*:1])[*:2]].Q.W.V.W.A.V.G.H.L.M.[am]}$$$$V2.0): the “block the binding of 125I-BBN” value in data set [3] is given as “could block”.
`CC(C)C[C@H](NC(=O)C[C@H](O)[C@H](CC(C)C)NC(=O)[C@H](Cc1c[nH]cn1)NC(=O)CNC(=O)[C@@H](NC(=O)[C@H](C)NC(=O)[C@H](Cc1c[nH]c2ccccc12)NC(=O)[C@H](CCC(N)=O)NC(=O)[C@@H](Cc1ccccc1)NC(=O)CCNC(=O)CCNC(=O)CN1CCN(CC(=O)O)CCN(CC(=O)O)CCN(CC(=O)O)CC1)C(C)C)C(N)=O` [^68Ga-JMV4168, metal not drawn]: the logP in data set [4] was -2.53 ± 0.04. Besides, the tissue uptake at 2 h in data set [5] (PC-3 tumor, uptake in PC-3 tumors, 2 h after injection, i.v.) came out at 5.96 ± 1.39 %ID/g; in data set [5] (blood, remaining in blood, 2 h p.i.), 0.09 ± 0.04 %ID/g. The “pancreas uptake decreased by a factor” value in data set [2] (from 1 h to 2 h p.i.) was found to be 6.1. In addition, the “clearance / excretion route” value in data set [2] (mice with s.c. PC-3 xenografts) is “exclusively via the kidney”.
Consider `CC(C)C[C@H](NC(=O)C[C@H](O)[C@H](CC(C)C)NC(=O)[C@H](Cc1c[nH]cn1)NC(=O)CNC(=O)[C@@H](NC(=O)[C@H](C)NC(=O)[C@H](Cc1c[nH]c2ccccc12)NC(=O)[C@H](CCC(N)=O)NC(=O)[C@@H](Cc1ccccc1)NC(=O)CCNC(=O)CCNC(=O)Cc1ccc(CN2CCN(CC(=O)O)CCN(CC(=O)O)CC2)cc1)C(C)C)C(N)=O` [^68Ga-JMV5132, metal not drawn], for which, in “in vivo”, the tissue uptake at 2 h was 5.24 ± 0.29 %ID/g. Also, in data set [1] (setting [6]), the remaining in blood was 0.19±0.13 % ID/g. The “clearance / excretion route” value in data set [1] is listed as “partially hepatobiliary”. Further, the “tumor uptake after co-injection of excess unlabeled peptide (GRPR-specificity)” value in data set [2] was “significantly reduced”.

Values taken from patent US20150217006A1, “AL-F-18-LABELED, AL-F-19-LABELED AND GA-68-LABELED GASTRIN-RELEASING PEPTIDE RECEPTOR (GRPR)-ANTAGONISTS FOR IMAGING OF PROSTATE CANCER” (Immunomedics, Inc., priority 2014, published 2015).
